Here are results for four compounds from patent EP1160247A1, “6,5-Fused aromatic ring systems having enhanced phosphodiesterae IV inhibitory activity” (Euro-Celtique S.A., priority 2000, dated 2001).

Each structure is given as a SMILES string.

One assay addresses T1, PDE III (Homo sapiens, UniProt Q14432).
T1 construct: Fractions containing PDE III activity are pooled and dialyzed; from tissue; host or cells: human platelets (100,000 x g supernatant, DEAE-Trisacryl M fraction)
Kind of assay: Type III PDE activity, hydrolysis of [3H]-cyclic AMP. The format is biochemical. The settings on record: enzyme from human platelets; cyclic AMP 0.2 µM; 2.5% dimethyl sulfoxide. As to the method:
The Type III PDE is isolated from human platelets using a procedure similar to that previously described by Weishaar, R.E.; Burrows, S.D.; Kobylarg, D.C., Quade, N.M.; Evans, D.B., Biochem. Pharmacol., 35:787, 1986. Briefly, 1-2 units of platelets are suspended in an equal volume of buffer (20 mM Tris-HCl, pH 7.5, containing 2 mM magnesium acetate, 1 mM dithiothreitol, and 5 mM Na2 EDTA). The protease inhibitor phenyl methyl-sulfonyl fluoride (PMSF) is also included in this buffer at a final concentration of 200 µM. The suspension is homogenized using a polytron and the homogenate centrifuged at 100,000 x g for 60 minutes. This and all subsequent procedures are performed at 0-4°C. The supernatant is then filtered through four layers of gauze and applied to a DEAE-Trisacryl M column, previously equilibrated with buffer B (20 mM Tris-HCl, pH 7.5, containing 1 mM magnesium acetate, 1 mM dithiothreitol and 200 µM PMSF). After application of the sample, the column is washed with several bed volumes of buffer B, after which the different forms of PDE are eluted from the column using two successive linear NaCl gradients (0.05-0.15 M, 300 ml total; 0.15-0.40 M, 200 ml total). Five milliliter fractions are collected and assayed for cyclic AMP and cyclic GMP PDE activity. Fractions containing PDE III activity are pooled and dialyzed overnight against 4 liters of buffer B. The dialyzed PDE III is then concentrated to 10% of the original volume, diluted to 50% with ethylene glycol monoethyl ether and stored at -20°C.
Enzyme activity is assessed by measuring the hydrolysis of [^3H]-cyclic AMP, as described by Thompson, W.J., Teraski, W.L., Epstein, P.N., Strada, S.J.: Adv. Cyclic Nucleotide Res. 10:69, 1979. The cyclic AMP concentration used in this assay is 0.2 µM, which approximates to the Km value. Protein concentration is adjusted to ensure that no more than 15% of the available substrate is hydrolyzed during the incubation period.
All test compounds are dissolved in dimethyl sulfoxide (final concentration of 2.5%).
The compounds are tested over concentration range: 0.1, 1, 10, 100 uM (n=1), and IC50 determinations are made using 5 appropriate concentrations (n=2).

The target in a further assay is T2, PDE V (Homo sapiens, UniProt O76074).
T2 construct: from tissue; host or cells: platelets (supernatant, DEAE-Trisacryl M fraction)
Kind of assay: Type V PDE activity, hydrolysis of [3H]-cyclic GMP. The format is biochemical. The settings on record: enzyme from platelets; cyclic GMP 0.2 uM; 2.5% dimethyl sulfoxide. As to the method:
Briefly, 1-2 units of platelets are suspended in an equal volume of buffer A (20 mM Tris-HCl, pH 7.5, containing 2 mM magnesium acetate, 1 mM dithiothreitol, and 5 mM Na2EDTA) using a polytron. The proteinase inhibitor phenylmethylsulfonyl fluoride (PMSF) are also included in this buffer at a final concentration of 200 uM. This and all subsequent procedures are performed at 0-4°C. The homogenate is then centrifuged at […] for 60 minutes. The supernatant is then removed and filtered through four layers of gauze and applied to a DEAE-Trisacryl M column. The column is washed with several bed volumes of buffer B (20 mM Tris-HCl, pH 7.5, containing 2 mM magnesium acetate, 1 mM diothiothreitol, and […] PMSF) and eluted by two successive linear NaCl gradients (0.05-0.15 M, 300 ml total; 0.15-0.40 M, 200 ml total). Five ml fractions are collected and assayed for cyclic AMP and cyclic GMP PDE activity. Fractions that contain PDE V are pooled and dialyzed overnight against 4 L of buffer C (20 mM Tris-HCl, pH 7.5, containing 2 mM magnesium acetate and proteinase inhibitors). The dialyzed PDE V is then concentrated to 10% of the original volume, diluted to 50% with ethylene glycol monoethyl ether and stored at -20°C. PDE V can typically be retained for up to four weeks with little or no loss of activity.
The reference Type V PDE inhibitor zaprinast is evaluated with each assay.

T1 sequence (Q14432 whole entry): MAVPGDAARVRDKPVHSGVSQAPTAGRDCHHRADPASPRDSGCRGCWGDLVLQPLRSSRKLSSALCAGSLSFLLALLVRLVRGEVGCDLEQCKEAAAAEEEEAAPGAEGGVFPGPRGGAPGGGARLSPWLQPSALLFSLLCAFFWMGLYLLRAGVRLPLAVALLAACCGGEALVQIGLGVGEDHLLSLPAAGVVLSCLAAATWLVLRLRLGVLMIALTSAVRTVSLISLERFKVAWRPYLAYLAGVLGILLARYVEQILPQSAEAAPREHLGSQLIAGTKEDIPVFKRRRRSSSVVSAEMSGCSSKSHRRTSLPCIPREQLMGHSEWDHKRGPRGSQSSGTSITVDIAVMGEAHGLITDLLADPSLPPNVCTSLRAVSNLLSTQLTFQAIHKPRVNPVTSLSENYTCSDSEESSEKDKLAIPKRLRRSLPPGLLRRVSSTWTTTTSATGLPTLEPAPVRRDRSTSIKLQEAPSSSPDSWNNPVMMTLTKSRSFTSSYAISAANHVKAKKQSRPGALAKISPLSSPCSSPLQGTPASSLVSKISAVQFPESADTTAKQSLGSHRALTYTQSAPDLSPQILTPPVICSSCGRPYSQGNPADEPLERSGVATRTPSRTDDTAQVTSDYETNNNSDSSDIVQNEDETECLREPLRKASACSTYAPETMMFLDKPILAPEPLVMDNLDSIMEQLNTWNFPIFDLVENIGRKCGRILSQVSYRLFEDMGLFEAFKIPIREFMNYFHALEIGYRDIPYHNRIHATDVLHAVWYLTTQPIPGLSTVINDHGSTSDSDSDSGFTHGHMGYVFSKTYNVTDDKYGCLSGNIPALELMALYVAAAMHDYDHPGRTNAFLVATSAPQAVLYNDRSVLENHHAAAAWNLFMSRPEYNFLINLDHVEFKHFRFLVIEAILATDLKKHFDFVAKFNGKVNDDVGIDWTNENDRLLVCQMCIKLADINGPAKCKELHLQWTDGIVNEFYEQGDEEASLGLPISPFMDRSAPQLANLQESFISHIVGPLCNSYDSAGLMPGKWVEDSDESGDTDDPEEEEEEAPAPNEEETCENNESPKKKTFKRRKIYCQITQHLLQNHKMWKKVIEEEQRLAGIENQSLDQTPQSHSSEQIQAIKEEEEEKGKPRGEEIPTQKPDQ

The IC50 is the concentration that gives 50% inhibition. A low value points to inhibition by little substance. On PDE III, `COc1ccc(C2CNC(=O)C2)cc1OC1CCCC1` (stereo not shown) [Rolipram, reference compound] registered a half-inhibitory concentration (IC50) of 620 µM.

Regarding `CC(C)(C)c1cc(Cc2nc3cc(Cl)cc(C#Cc4nccs4)c3o2)cc(C(C)(C)C)c1O` [Example 3, 5-chloro-2-(3,5-di-t-butyl-4-hydroxy-benzyl)-7-(2-(2-thiazolyl)-ethynyl)-benzoxazole], the IC50 against PDE V and at PDE III was more than 300 µM throughout.

For `CC(C)(C)c1cc(Cc2nc3cccc(C#Cc4ccccn4)c3o2)cc(C(C)(C)C)c1O` [Example 2, 2-(3,5-di-t-butyl-4-hydroxy-benzyl)-7-(2-(2-pyridyl)-ethynyl)-benzoxazole], the IC50 at PDE V was 35.1 µM; against PDE III it was more than 300 µM.

Take `CC(C)(C)c1cc(Cc2nc3cc(Cl)cc(C#Cc4ccccn4)c3o2)cc(C(C)(C)C)c1O` [Example 1, 5-chloro-2-(3,5-di-t-butyl-4-hydroxy-benzyl)-7-(2-(2-pyridyl)-ethynyl)-benzoxazole]: the half-inhibitory concentration (IC50) at PDE V and against PDE III was more than 300 µM throughout.
